From patent US12357645B2, “Drug combination for treatment of gastric cancer” (priority 2023, dated 2025)

Legend:
[1] = system: gastric cancer cell lines MKN28 and MKN45; settings: inhibits Sp1 to decrease HSP70; cited from earlier work
[2] = system: patients with Advanced Solid Tumors; type: in vivo, human
Source text: Oral Minnelide Prodrug. A Phase 1, Multi-Center, Open-Label, Dose-Escalation, Safety, Pharmacokinetic, and Pharmacodynamic Study of Minnelide™ Capsules given alone or in combination with protein-bound paclitaxel in patients with Advanced Solid Tumors. A total of 44 patients were enrolled and dosed in the Phase 1 study, 32 in the monotherapy regimen, and 12 in the combination regimen. The primary reason for discontinuation of treatment has been disease progression. There were 9 deaths in the study, 7 of which were assessed as not related to minnelide prodrug and were after discontinuation of the study drug. One patient on the 1.25 mg monotherapy regimen passed away from G5 related sepsis.

rats = assay: Definitive toxicity studies in rats (intravenous); type: in vivo; settings: definitive toxicity study
Experimental: As clinical development of minnelide prodrug was initiated using an intravenous drug product, IND-enabling toxicology studies were conducted in both rats and dogs using the intravenous route of administration. The results of these studies supported first-in-human clinical trials involving intravenous administration of minnelide prodrug to patients with advanced solid tumors. To support the clinical development of a new solid oral dosage form of minnelide prodrug (capsules), exploratory and definitive toxicity studies were conducted with minnelide prodrug in solution via oral gavage in dogs. Taken together, the results of the intravenous and oral toxicity studies conducted with minnelide prodrug indicate that the target organ profile of minnelide prodrug is consistent in both species (rats and dogs) when administered by either route of administration (intravenous or oral).

ovarian carcinoma cells = assay: Proliferation of ovarian carcinoma cells in vitro (activated with alkaline phosphatase); type: cell-based; settings: concentration-dependent, 50-200 nM
[3] = system: advanced gastric cancer (AGC); assay: Phase 1 study of minnelide prodrug alone or with paclitaxel in advanced gastric cancer (NCT 05566834): antitumor activity (RECIST v1.1; BOR, ORR, DCR, PFS, OS); type: in vivo, human
Experimental: Target Lesions. All measurable lesions up to a maximum of two lesions per organ and five lesions in total, representative of all involved organs, were identified as target lesions and recorded and measured at baseline. Target lesions were selected on the basis of their size (lesions with the longest diameter) and were representative of all involved organs, as well as their suitability for reproducible repeated measurements. All measurements were recorded using calipers if clinically assessed.
A sum of the diameters (longest for non-nodal lesions, short axis for nodal lesions) for all target lesions were calculated and reported as the baseline sum diameters, which were used as a reference to further characterize any objective tumor regression in the measurable dimension of the disease. If lymph nodes were included in the sum, only the short axis contributed.
Study design. This was an open-label, nonrandomized, phase 1 study conducted at Samsung Medical Center (SMC) in Korea. The study consisted of three regimens: Monotherapy with minnelide prodrug (Regimen A) and Combination therapy (minnelide prodrug plus paclitaxel), which was further divided into Regimen B and C.
Patients. Adult (≥20 years of age) Korean patients with histologically confirmed advanced-unresectable or metastatic gastric or gastro-esophageal junction adenocarcinoma, who had failed initial standard therapy or for whom no standard treatment was available, were eligible to participate in the study, regardless of HER2 status. Study treatment was discontinued if the patient experienced radiological progressive disease (PD) per Response Evaluation Criteria in Solid Tumors version 1.1 (RECIST v1.1) as assessed by the investigator, clinical progression as assessed by the investigator, or developed unacceptable toxicity.
Treatments. In Regimen A, 3-5 patients were treated at escalating doses of minnelide prodrug alone to determine the maximum tolerated dose (MTD). Minnelide prodrug was administered per oral (PO) once daily for 21 days followed by a 7-day rest period, starting at 1 mg, and escalating to 1.25 mg, and 1.5 mg. One cycle was equal to 28 days and minnelide prodrug was given with the patient in a fasting state. In Regimen B, the same dosing scheme was used for minnelide prodrug 0.25 mg PO in combination with paclitaxel intravenously on days 1, 8 and 15 (Q4W), starting at 60 mg/m^2, and escalating to 80 mg/m^2. In Regimen C, patients were treated with paclitaxel 80 mg/m^2 given intravenously on days 1, 8 and 15 (Q4W) in combination with minnelide prodrug PO once daily on days 1 to 5, 8 to 12 and 15 to 19, starting at 0.5 mg, escalating to 0.75 mg, 1.0 mg, and 1.25 mg. Dose-limiting toxicities (DLTs) were assessed during cycle 1. Treatment continued until disease progression, death, unacceptable toxicity, or patient or investigator decision to discontinue.
Outcomes. In this phase 1 study, the primary objective was to determine the maximum tolerated dose (MTD) and the dose limiting toxicities (DLT) of minnelide prodrug when given alone or in combination with paclitaxel and to establish recommended phase 2 dose (RP2D) of single-agent minnelide prodrug and in combination with paclitaxel every 4 weeks. Secondary objectives were to assess any evidence of antitumor activity of minnelide prodrug alone and in combination with paclitaxel by objective radiographic assessment. Antitumor activity was assessed by objective response rate (ORR). Disease control rate (DCR), duration of response (DOR), progression-free survival (PFS) and overall survival (OS) analysis were performed.
Assessment. Adverse events were graded using National Cancer Institute Common Terminology Criteria for Adverse Events (NCI CTCAE), version 4.03. Tumor assessments were performed after cycles 2, 4, 6, and 8, and every 4 cycles thereafter, or as indicated. Response was determined by investigators using RECIST criteria, version 1.1. […]

[4] = system: pancreatic tumor cell lines; assay: Viability of pancreatic tumor cell lines in vitro (activated with alkaline phosphatase); type: cell-based; settings: activated by concurrent incubation with alkaline phosphatase
[5] = 44 patients, alone or with protein-bound paclitaxel
[6] = Regimen A (PO daily x21 d/28 d), n = 11
[7] = Regimen A, nine patients who completed at least 1 cycle with measurable lesions
[8] = Regimen A, Kaplan-Meier estimate

CC(C)[C@]12O[C@H]1[C@@H]1O[C@]13[C@]1(O[C@H]1C[C@H]1C4=C(CC[C@@]13C)C(=O)OC4)[C@@H]2OCOP(=O)([O-])[O-].[Na+].[Na+] [minnelide prodrug, disodium; [(1S,2S,4S,5S,7S,8R,9R,11S, 13S)-1-methyl-17-oxo-7-propan-2-yl-3,6,10,16-tetraoxaheptacyclo [11.7.0.0^2,4.0^2,9.0^5,7.0^9,11.0^14,18]icos-14 (18)-en-8-yl]oxymethyl phosphate]
cell death [1]: induce cell death | Serious Adverse Events related to the study drug [2, 5]: 4 | Serious Adverse Events, number [2, 5]: 28 | patients who discontinued study drug due to TEAE [2, 5]: Four | patients with Serious Adverse Events [2, 5]: 17 | deaths in the study ([2]; 44 patients: 32 monotherapy, 12 combination): 9 | deaths assessed as not related to minnelide prodrug ([2]; after discontinuation of the study drug): 7 | patients with at least 1 AE considered related to the study drug ([2]; in vivo): Twenty-seven | SAE cases considered dose limiting toxicities (DLTs) ([2]; two events of sepsis, one influenza A pneumonia): Three | histopathology of reproductive tract tissues, males and females (rats): adverse, largely irreversible histopathological effects | proliferation (ovarian carcinoma cells): reduced the proliferation | Duration of OS, Range ([3]; Regimen A): 1.6-11.1 months | Duration of PFS, Range ([3]; Regimen A): 0.7-5.4 months | PFS events, n (%) ([3]; Regimen A): 9 n (%) | BOR NE, number of patients [3, 6]: 2 | BOR PD, number of patients [3, 6]: 5 | BOR SD, number of patients [3, 6]: Four | DCR, n (%) [3, 6]: 4 (36.4) n (%) | ORR, n (%) [3, 6]: 0 n (%) | BOR SD, number of patients ([3]; Regimen A (PO daily x21 d/28 d), n = 11, listed as Minnelide prodrug): 4 | BOR PD, share of patients [3, 7]: 55.6% | BOR SD, share of patients [3, 7]: 44.4% | DCR [3, 7]: 44.4% | Duration of OS, Median [3, 8]: 5.3 months | Duration of PFS, Median [3, 8]: 1.6 months | duration of stable disease (one patient) ([3]; single agent, patient had failed four lines of therapy including immunotherapy): 5.4 months | potency in decreasing viability [4]: as potent as triptolide
